Where “and” joins values, the source holds several entries; their conditions need not be identical. Identical values can stand only once. Toxic doses and inconclusive results are not listed. Cut-off read from the data, not from the text of the source: active = T/C of 150% or more; inactive = T/C below 125%.
System: L1210 leukemia ip in BDF1 mice, survival T/C
Experiment: NCI In Vivo Anticancer Drug Screen. Data for tumor model L1210 Leukemia (intraperitoneal) in B6D2F1 (BDF1) mice
Conditions: endpoint: mean survival time, higher = longer survival
Outline: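 Value reflects the ratio of survival in compound-treated mice to survival in vehicle-treated controls, with both groups carrying the same transplanted tumor.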

[1] = dose: 100.0 mg/kg/injection, schedule: Q01DX009 (ip), vehicle: saline
[2] = dose: 200.0 mg/kg/injection, schedule: Q01DX009 (ip), vehicle: saline
[3] = dose: 100.0 mg/kg/injection, schedule: Q04DX003 (ip), vehicle: Klucel (hydroxypropylcellulose) (HPC)
[4] = dose: 200.0 mg/kg/injection, schedule: Q04DX003 (ip), vehicle: Klucel (hydroxypropylcellulose) (HPC)
[5] = dose: 400.0 mg/kg/injection, schedule: Q04DX003 (ip), vehicle: Klucel (hydroxypropylcellulose) (HPC)
[6] = dose: 100.0 mg/kg/injection, schedule: Q01DX009 (ip), vehicle: Klucel (hydroxypropylcellulose) (HPC)
[7] = dose: 200.0 mg/kg/injection, schedule: Q01DX009 (ip), vehicle: Klucel (hydroxypropylcellulose) (HPC)
[8] = dose: 100.0 mg/kg/injection, schedule: Q01DX001 (ip), vehicle: saline
[9] = dose: 400.0 mg/kg/injection, schedule: Q01DX009 (ip), vehicle: Klucel (hydroxypropylcellulose) (HPC)
[10] = dose: 100.0 mg/kg/injection, schedule: Q01DX009 (ip), vehicle: saline with Tween-80
[11] = dose: 200.0 mg/kg/injection, schedule: Q01DX009 (ip), vehicle: saline with Tween-80
[12] = dose: 400.0 mg/kg/injection, schedule: Q01DX009 (ip), vehicle: saline with Tween-80
[13] = dose: 50.0 mg/kg/injection, schedule: Q04DX003 (ip), vehicle: saline with Tween-80
[14] = dose: 100.0 mg/kg/injection, schedule: Q04DX003 (ip), vehicle: saline with Tween-80
[15] = dose: 200.0 mg/kg/injection, schedule: Q04DX003 (ip), vehicle: saline with Tween-80
[16] = dose: 400.0 mg/kg/injection, schedule: Q04DX003 (ip), vehicle: saline with Tween-80

Measured: T/C

CCOC(=O)C(C)(OCC)OCC
inactive: [1] 103 % of control | dose: 100.0 mg/kg/injection, schedule: Q01DX009 (ip), vehicle: water 100 % of control | dose: 100.0 mg/kg/injection, schedule: Q04DX003 (ip), vehicle: saline 109 % of control | dose: 100.0 mg/kg/injection, schedule: Q04DX003 (ip), vehicle: water 97 % of control | [2] 96 % of control | dose: 200.0 mg/kg/injection, schedule: Q01DX009 (ip), vehicle: water 100 % of control | dose: 200.0 mg/kg/injection, schedule: Q04DX003 (ip), vehicle: saline 96 % of control | dose: 200.0 mg/kg/injection, schedule: Q04DX003 (ip), vehicle: water 101 % of control | dose: 400.0 mg/kg/injection, schedule: Q01DX009 (ip), vehicle: saline 88 % of control | dose: 400.0 mg/kg/injection, schedule: Q01DX009 (ip), vehicle: water 91 % of control | dose: 400.0 mg/kg/injection, schedule: Q04DX003 (ip), vehicle: saline 102 % of control | dose: 400.0 mg/kg/injection, schedule: Q04DX003 (ip), vehicle: water 97 % of control

CCc1nc(C)ncc1-c1ccc([N+](=O)[O-])cc1O
inactive: [3] 97 % of control | [4] 97 % of control | [5] 91 % of control

Cc1c(C(=O)O)nnn1-c1ccccc1
inactive: dose: 75.0 mg/kg/injection, schedule: Q01DX001 (ip), vehicle: saline 97 % of control | dose: 150.0 mg/kg/injection, schedule: Q01DX001 (ip), vehicle: saline 96 % of control

O=C(/C=N\O)c1ccncc1
inactive: [6] 100 % of control | [7] 94 % of control

CC1CC(C(C)(C)C)CCC1S (stereo not given)
inactive: [1] 95 % of control | [2] 88 % of control

CCCCc1nc2c(c(=O)n(C)c(=O)n2C)n1C
inactive: dose: 50.0 mg/kg/injection, schedule: Q01DX001 (ip), vehicle: saline 96 % of control | [8] 96 % of control | dose: 200.0 mg/kg/injection, schedule: Q01DX001 (ip), vehicle: saline 102 % of control

CN(C)c1ccc(C(=C(C#N)C#N)c2ccc(N(C)C)cc2)cc1
inactive: [6] 98 % of control | [3] 95 % of control | [7] 98 % of control | [4] 101 % of control | [9] 102 % of control | [5] 101 % of control

c1ccc(CC2NC2c2ccccc2)cc1 (stereo not given)
inactive: dose: 100.0 mg/kg/injection, schedule: Q04DX002 (ip), vehicle: Klucel (hydroxypropylcellulose) (HPC) 92 % of control | [3] 96 % of control | dose: 200.0 mg/kg/injection, schedule: Q04DX002 (ip), vehicle: Klucel (hydroxypropylcellulose) (HPC) 98 % of control | [4] 96 % of control | [5] 103 % of control

CCC1CCC(NC(=O)c2ccccc2)CC1 (stereo not given)
inactive: [10] 92 % of control | [11] 94 % of control | [12] 92 % of control

Cc1ccc(Cl)cc1NC(=O)OCCOc1ccccc1
inactive: [13] 104 % of control | dose: 100.0 mg/kg/injection, schedule: Q01DX001 (ip), vehicle: saline with Tween-80 93 % of control | [10] 95 % of control | dose: 100.0 mg/kg/injection, schedule: Q04DX002 (ip), vehicle: saline with Tween-80 112 % of control and 89 % of control | [14] 96 % of control and 91 % of control | dose: 200.0 mg/kg/injection, schedule: Q01DX001 (ip), vehicle: saline with Tween-80 91 % of control | [11] 103 % of control and 90 % of control | dose: 200.0 mg/kg/injection, schedule: Q04DX002 (ip), vehicle: saline with Tween-80 94 % of control | [15] 102 % of control | dose: 400.0 mg/kg/injection, schedule: Q01DX001 (ip), vehicle: saline with Tween-80 98 % of control | [12] 95 % of control and 103 % of control | dose: 400.0 mg/kg/injection, schedule: Q04DX002 (ip), vehicle: saline with Tween-80 94 % of control and 95 % of control | [16] 88 % of control and 92 % of control

S=C(NCc1ccc(Cl)c(Cl)c1)NCc1ccc(Cl)c(Cl)c1
inactive: dose: 25.0 mg/kg/injection, schedule: Q01DX009 (ip), vehicle: Klucel (hydroxypropylcellulose) (HPC) 103 % of control | dose: 50.0 mg/kg/injection, schedule: Q01DX009 (ip), vehicle: Klucel (hydroxypropylcellulose) (HPC) 101 % of control

O=C(OCCCCCCl)c1ccccc1
inactive: [10] 100 % of control | [14] 106 % of control | [11] 104 % of control | [15] 97 % of control | [12] 98 % of control | [16] 95 % of control

Oc1ccccc1/C=N/c1nc2ccc(Cl)cc2s1.Oc1ccccc1/C=N/c1nc2ccc(Cl)cc2s1.[Zn]
inactive: [8] 90 % of control

COC(=O)C1=NNC(c2ccc(OC)cc2)C1 (stereo not given)
inactive: dose: 100.0 mg/kg/injection, schedule: Q01DX001 (ip), vehicle: steriod suspending solution 115 % of control | dose: 200.0 mg/kg/injection, schedule: Q01DX001 (ip), vehicle: steriod suspending solution 97 % of control | dose: 400.0 mg/kg/injection, schedule: Q01DX001 (ip), vehicle: steriod suspending solution 103 % of control

CCc1ccccc1NC(=O)Nc1ccc(CCO)cc1
inactive: [6] 98 % of control | [7] 105 % of control | [9] 96 % of control

CCCCNC(=O)Nc1ccc(N(C)C)cc1
inactive: dose: 50.0 mg/kg/injection, schedule: Q01DX009 (ip), vehicle: saline with Tween-80 95 % of control | [10] 92 % of control | [14] 102 % of control | [11] 90 % of control | [15] 100 % of control | [16] 109 % of control

CCCCCCCCCCCCCCCCCCNC(=O)Nc1ccccc1
inactive: dose: 100.0 mg/kg/injection, schedule: Q01DX009 (ip), vehicle: other 101 % of control | dose: 200.0 mg/kg/injection, schedule: Q01DX009 (ip), vehicle: other 100 % of control | dose: 400.0 mg/kg/injection, schedule: Q01DX009 (ip), vehicle: other 97 % of control

CCOC(=O)c1c(NC(=O)CCC(=O)Nc2sc(C)c(C)c2C(=O)OCC)sc(C)c1C
inactive: [13] 88 % of control | [6] 90 % of control | [14] 98 % of control | [15] 90 % of control | [9] 88 % of control | [16] 88 % of control

CCCCCCCCCCCCCCCC[n+]1ccccc1
inactive: dose: 0.12 mg/kg/injection, schedule: Q01DX Z (ip), vehicle: water 101 % of control | dose: 0.25 mg/kg/injection, schedule: Q01DX Z (ip), vehicle: water 101 % of control | dose: 0.5 mg/kg/injection, schedule: Q01DX Z (ip), vehicle: water 108 % of control | dose: 1.0 mg/kg/injection, schedule: Q01DX Z (ip), vehicle: water 103 % of control

COc1ccccc1/C=N/N=C(N)N
inactive: dose: 15.5 mg/kg/injection, schedule: Q01DX Z (ip), vehicle: other 97 % of control | dose: 31.0 mg/kg/injection, schedule: Q01DX Z (ip), vehicle: other 96 % of control

COc1cc(Nc2cc(N)nc(N)n2)cc(OC)c1OC
inactive: [14] 95 % of control | [15] 98 % of control | [16] 88 % of control
